Test results taken from US7524865B2, “Methods and compositions for treating an ocular neovascular disease” (priority 1993, dated 2009).
Like-named read-outs stand apart in the source and are kept apart here.

Legend:
[1] = tested on: βFGF induced corneal neovascularization; conditions: for median inhibition of the area of vascularized cornea: day 8, percent of median control
Experimental: Pellets for implantation into rabbit corneas were made by mixing 110 μl of saline containing 12 μg of recombinant βFGF (Takeda Pharmaceuticals-Japan) with 40 mg of sucralfate (Bukh Meditec-Denmark); this suspension was added to 80 μl of 12% hydron (Interferon Sciences) in ethanol. 10 μl aliquots of this mixture was then pipetted onto teflon pegs and allowed to dry producing approximately 17 pellets. A pellet was implanted into corneal micropockets of each eye of an anesthetized female New Zealand white rabbit, 2 mm from the limbus followed by topical application of erythromycin ointment onto the surface of the cornea. The animals were fed daily from 2 days post-implantation by gastric lavage with either drug suspended in 0.5% carboxymethyl cellulose or 0.5% carboxymethyl cellulose alone. Thalidomide was purchased from Andrulus Pharmaceutical (Maryland) and the EM-12 and Supidimide were kindly provided by Grunenthal GMBH (Germany). The animals were examined with a slit lamp every other day in a masked manner by the same corneal specialist. The area of corneal neovascularization was determined by measuring with a reticule the vessel length (L) from the limbus and the number of clock hours (C) of limbus involved. A formula was used to determine the area of a circular band segment: C/12*3.1416 [r^2−(r−L)^2] where r=6 mm the measured radius of the rabbit cornea.
Pellets containing βFGF and sucralfate were implanted into micropockets of both corneas of rabbits according to Example II. […] The area of corneal neovascularization was measured from day 4 through day 12. Day 8 measurements were used for comparison between groups. […] Statistical analysis was performed with ANOVA with ranked data to account for interexperimental variation and to guard against a non-normal distribution of data (i.e. outliers) by utilizing a nonparametric method.

B16-BL6 melanoma cells = experiment: B16-BL6 melanoma pulmonary metastasis model; assay type: in vivo, C57B1/6 mice
Experimental: (§1) B16-BL6 melanoma cells (5×10^4) were injected intravenously into the tail veins of C57B1/6 mice. Three days later, the mice were treated intraperitoneally with increasing doses of thalidomide or 2-phthalimidinoglutaric acid (EM-138) on alternate days. Fourteen days after tumor cell inoculation, the lungs were removed from the mice and the surface pulmonary metastases were counted.
as §1, with “orally” for “intraperitoneally”
B16-BL6 melanoma cells (5×10^4) were injected intravenously into the tail veins of C57B1/6 mice. Three days later, the mice received a gavage treatment with 0.8 mmol/kg of 2-phthalimidinoglutaric acid (EM-138). The mice received either a single treatment, five treatments on alternate days, or one treatement every day for eleven days. Fourteen days after tumor cell inoculation, the lungs were removed from the mice and the surface pulmonary metastases were counted.
B16-BL6 melanoma cells (5×10^4) were injected intravenously into the tail veins of C57B1/6 mice. Three days later, treatment began. The mice received intraperitoneal injections of thalidomide (0.4 mmol/kg), thalidomide (3.0 mmol/kg) or 2-phthalimidinoglutaric acid (EM-138) (0.4 mmol/kg) every day. Fourteen days after tumor cell inoculation, the lungs were removed from the mice and the surface pulmonary metastases were counted.

[2] = Stability compared with thalidomide; assay type: physicochemical
Crohn's disease = experiment: Treatment of a patient with Crohn's disease; assay type: in vivo, human; conditions: 100 mg twice a day orally, one week
Experimental: A patient with Crohn's disease was treated using the methods of the present invention. […] Thalidomide was orally administered to them at a dosage of 100 mg twice a day.

[3] = 0.4 mmol/kg intraperitoneal every day from day 3, lungs day 14

O=C1CCC(N2Cc3ccccc3C2=O)C(=O)N1 (stereo not shown) [EM-12]
inhibition in rabbit cornea assay ([1]; 100 mg/kg/day): 21%
median inhibition of the area of vascularized cornea ([1]; 200 mg/kg orally): 42%
inhibition in rabbit cornea assay ([1]; 200 mg/kg/day): 43%

O=C(O)CCC(C(=O)O)N1Cc2ccccc2C1=O (stereo not shown) [EM-138, 2-phthalimidinoglutaric acid]
T/C, ratio of lung metastases of treated vs. control animals (B16-BL6 melanoma cells; [3]): 0.2
reduction of pulmonary metastases (B16-BL6 melanoma cells; [3]): 80%
inhibition of B16-BL6 metastasis (B16-BL6 melanoma cells; 0.8 mmol/kg/day): over 90%
inhibition of metastasis after a single administration (B16-BL6 melanoma cells; single administration): significantly inhibits metastasis
stability relative to thalidomide [2]: more stable than thalidomide

O=C1NCCCC1N1C(=O)c2ccccc2S1(=O)=O (stereo not shown) [Supidimide]
activity in the rabbit cornea assay (in words) ([1]; 200 mg/kg orally): no activity
area of corneal neovascularization, % of control ([1]; 200 mg/kg orally, day 8): 107 % of control

O=C1CCC(N2C(=O)c3ccccc3C2=O)C(=O)N1 (stereo not shown) [thalidomide]
inhibition of pulmonary metastases (in words) (B16-BL6 melanoma cells; 0.4 mmol/kg intraperitoneal every day): minimal inhibition
T/C, ratio of lung metastases of treated vs. control animals (B16-BL6 melanoma cells; [3]): 0.9
inhibition of pulmonary metastases (in words) (B16-BL6 melanoma cells; 3.0 mmol/kg intraperitoneal every day): inhibited metastases
gastrointestinal symptoms, including diarrhea and cramping (Crohn's disease): lessened
skin lesion on the lower leg (Crohn's disease): resolved
density of vessel ingrowth ([1]; 200 mg/kg orally): markedly reduced
onset of inhibition of angiogenesis ([1]; 200 mg/kg orally (FIG. 7)): seen after only two doses
inhibition of the area of vascularized cornea, range in three experiments ([1]; 200 mg/kg orally, begun day 2, day 8 measurements): 30-51%
median inhibition of the area of vascularized cornea ([1]; 200 mg/kg orally): 36%
